# From patent US20250206845A1, “PHARMACEUTICAL COMPOSITION INCLUDING RHO-KINASE INHIBITOR FOR PREVENTION OR TREATMENT OF CUTANEOUS FIBROTIC DISORDERS SUCH AS KELOID, ETC. AND USE THEREOF” (Seoul National University R&DB Foundation, priority 2022, published 2025)
# Like-named read-outs stand apart in the source and are kept apart here.
# Experiments:
# [1] = tested on: phosphorylated cofilin and myosin light chain (MLC); test: Western blotting of p-MLC/MLC and p-cofilin/cofilin in keloid fibroblasts; assay type: cell-based, human; conditions: keloid fibroblasts with or without stretch, Y-27632, FIG. 4C
# Experimental: Scale bar=50 μm. The results were expressed as the mean with SD (n=5). The experiments were performed in triplicate. Student's t test was used for all analyses. * P<0.05. […] To obtain whole-cell extracts, cells were lysed with Pierce Cell Lysis Buffer (Thermo Fisher, MA, USA) containing phosphatase inhibitors and protease inhibitors. Protein extracts (30 μg) were analyzed by sodium dodecyl sulfate polyacrylamide gel electrophoresis (SDS-PAGE) and transferred to a polyvinylidene difluoride membrane. […] GAPDH was used as a loading control for Western blotting analysis.
# [2] = tested on: keloid nodules formed by human keloid fibroblasts; test: Patient-derived keloid xenograft SCID mouse model of nodule formation (nodule volume and weight); assay type: in vivo; conditions: SCID mice, Y-27632 20 mg/kg injected into nodule
# Experimental: Approval for animal experiments was obtained from the Animal Experiment Performance Committee of Seoul National University Boramae Hospital (Approval No.: 2019-0031). Male NOD.CB17-Prkdc scid/J (SCID) mice (5 weeks old, weight: 22.58±0.91 g) were purchased from Charles River Japan (Yokohama, Japan). All animal experimental procedures were performed in accordance with the guidelines of the Animal Experiment Research Committee of Seoul Boramae Hospital. All experiments were performed under aseptic conditions. Under anesthesia using isoflurane, the dorsal furs of seven SCID mice were removed, the midline was marked, and then a 26-gauge needle was used in a 1-ml syringe (Becton, Dickinson and Company, Franklin Lakes, NJ, USA). These cells were obtained from seven patients who underwent keloid resection at Seoul National University Boramae Hospital. The cells were injected approximately 1 cm apart from the left and right sides of the most prominent area of the mouse's back. […] The nodules were measured every 2 to 3 days with calipers, and nodule volume was calculated using the following equation: Nodule volume=½×A×B2, where A=length in millimeters, B=width in millimeters. To collect the nodules 14 days after keloid fibroblast injection, the surrounding skin was carefully separated using forceps and a blade, and only the nodules were collected and weighed.
# [3] = tested on: keloid nodules formed by human keloid fibroblasts; test: In vivo histological and immunohistochemical analysis of keloid nodules; design: species or system SCID mice
# Experimental: A isolates nodules from mice treated with DMSO or Y-27632. […] Original magnification: ×200, scale bar=100 μm.
# Nodules were harvested 14 days after initial cell injection, fixed in 4% paraformaldehyde at 4° C. for 24 hours, washed with water for at least 4 hours, and finally embedded in paraffin. Paraffin sections (4 μm thick) were stained with hematoxylin and eosin (H&E, ab245880, Abcam, Cambridge, UK) and MT (TRM-2, ScyTek, Logan, Utah, USA) according to the manufacturer's instructions. The cytoplasm (400× magnification) of H&E-stained sections and the collagen density (400× magnification) of MT-stained sections were checked for each section using an Olympus BX53 microscope (Olympus Corporation, Shinjuku, Japan). Screenshots of three fine fields (right, center, and left) were acquired. The number of inflammatory cells per unit area (0.1 mm^2) was calculated using Olympus cellSens standard imaging software. The optical density of collagen was measured using ImageJ Immunohistochemical staining by avidin-biotin complex method. Briefly, paraformaldehyde (4%) fixed specimens were embedded in paraffin and cut into 4 μm thickness. The sections were dried at 56° C. for 1 hour, and then subjected to deparaffinization and rehydration steps with xylene. The sections were then cultured with trypsin enzyme antigen retrieval solution (ab970, Abcam, Cambridge, UK) at 37° C. for 30 min. Overnight culture was performed with primary antibodies at 4° C. After three washes with Tris-buffered saline containing 0.025% Triton-100, the second antibody was applied to each section at room temperature for 30 min. Images were taken in three fields (right, center, and left) with an Olympus BX53 microscope and analyzed with Image J software.
# F-actin = F-actin immunofluorescence in keloid fibroblasts; assay type: cell-based, human
# Experimental: Immunofluorescence confocal microscopy experiments were performed with antibodies to F-actin (green) and vinculin (orange). Scale bar=50 μm. Quantification of fluorescence intensity was shown. The experiments were performed in triplicate. Student's t test was used for all analyses. * P<0.05. […] Scale bar=50 μm. The results were expressed as the mean with SD (n=5). The experiments were performed in triplicate. Student's t test was used for all analyses. * P<0.05. […] Cells were washed twice with cold PBS and fixed overnight at 4° C. with 4% (w/v) paraformaldehyde. […] The cells were exposed to blocking buffer (1% BSA/PBS) for 30 min at room temperature and then exposed to Alexa Fluor 488-conjugated phalloidin (#A12379, Invitrogen, USA) in 1% BSA/0.1% Triton X-100/PBS for 1 hour at room temperature. After three washing steps, the cells were mounted with DAPI mounting medium, sealed with coverslip, and examined using a confocal laser scanning microscope (LSM 900; Carl Zeiss, NY, USA).
# ROCK1 = conditions: FIG. 4A
# Experimental: Mechanical stretching was applied to keloid fibroblasts using a mechanical stretching device (STB-1400; Strex Inc., Osaka, Japan). Briefly, the keloid fibroblasts were seeded at a density of 1.2×10^5 cells in a strex stretch chamber (STB-CH-10 Strex Inc., Osaka, Japan) pre-coated with 20 μg/ml rat tail type I collagen (C7661, Sigma Aldrich). After allowing attachment for overnight incubation, the strex stretch chamber was moved to the stretching device and mounted on a hook. The flexible silicone chamber was exposed to stretching with a length of 0-20% tension at a frequency of 10 cycles/min (0.166 Hz) for 24 hours. […] Cells of the control group were cultured in the same type of chamber in an incubator.
# ROCK1 kinase activity was analyzed with a ROCK activity assay kit (Cell Biolabs, CA, USA) according to the manufacturer's instructions. The ROCK activity assay kit is an enzyme immunoassay designed to detect the phosphorylation level of myosin phosphatase target subunit 1 at Thr696 by ROCK. […] The cells were harvested, trypsinized, and washed twice with PBS. […] Protein concentrations were determined using the Pierce BCA Quantification Protein Kit (Thermo Fisher Scientific, MA, USA). […] The absorbance was read at 450 nm with a SpectraMax Plus 384 microplate reader (Molecular Devices, San Jose, CA, USA).
# [4] = tested on: COL1A1, COL3A1, Fibronectin, α-SMA, CTGF, PCNA mRNA; test: qRT-PCR of pro-fibrotic genes in keloid fibroblasts; assay type: cell-based, human; conditions: mechanically stimulated keloid fibroblasts, FIG. 5A
# Experimental: Scale bar=200 μm. The results were expressed as the mean with SD (n=5). Student's t test was used for all analyses. * P<0.05. […] Total RNA was extracted using TRIzol reagent (Thermo Fisher Scientific, MA, USA). RNA (1000 ng) was subjected to cDNA synthesis using oligo (dT) random primers (Integrated DNA Technologies, IA, US) and AccuPower RT PreMix (Bioneer, South Korea) according to the following procedure: qRT-PCR was performed with PowerUp SYBR green master mix on a StepOnePlus real-time PCR System (Applied Biosystems, CA, USA) at 42° C. for 60 min and 95° C. for 5 min. The mRNA levels of each gene were normalized to the mRNA levels of GAPDH. The PCR steps are composed of an initial denaturation step at 94° C. for 5 min; at 94° C. for 1 min (denaturation), 55° C. for 1 min (annealing), and 72° C. for 2 min (extension); and a final extension step at 72° C. for 7 min. […] Relative expression was calculated using the 2-ΔΔCt method.
# keloid fibroblasts [5] = test: Cell viability / proliferation of keloid fibroblasts (CCK-8); assay type: cell-based, human; conditions: increasing dose of Y-27632, 24 hours, FIG. 3A
# Experimental: Immunofluorescence confocal microscopy experiments were performed with antibodies to F-actin (green) and vinculin (orange). Scale bar=50 μm. Quantification of fluorescence intensity was shown. The experiments were performed in triplicate. Student's t test was used for all analyses. * P<0.05. […] Briefly, human skin and keloid tissues were collected from five patients who underwent surgical resection at Seoul National University Boramae Hospital. The samples were rinsed three times with Dulbecco's phosphate-buffered saline containing 1% antibiotic-antifungal solution (A/A; Welgene, Gyeongsangbuk-do, Korea) and cut into 3 mm thick pieces. The tissues were then placed in 5 mg/ml dispase solution (Roche, Basel, Switzerland) for 4 hours at 37° C. The dermis and epidermis were separated, chopped into 1-mm thick pieces, and digested in 3 mg/ml collagenase type I (Thermo Fisher, MA, USA) to obtain a single cell suspension. The cells were cultured in Dulbecco's modified Eagle's medium (DMEM; Biowest, Nuaillé, France) containing 10% fetal bovine serum (FBS; Biowest, France) and 1% Antibiotic/Antimycotic Solution (Welgene Inc., Korea) in a humidified incubator at 37° C. and 5% CO2. […] The effect of stretch stimulation on the proliferation of normal and keloid fibroblasts was evaluated by the CCK-8 assay. […] The experiments were performed in triplicate and the data are expressed as the mean±SD.
# keloid fibroblasts [6] = test: Transwell migration analysis of keloid fibroblasts; assay type: cell-based, human; conditions: under mechanical force (stretch 24 hours), 10 μM Y-27632, transwell 24 hours, FIG. 5B
# Experimental: Scale bar=200 μm. The results were expressed as the mean with SD (n=5). Student's t test was used for all analyses. * P<0.05.
# For migration analysis using Transwell […] pore-size polycarbonate membrane (#3422, Corning Inc., ME, USA). […] As a control, static cells were cultured in a strex stretch chamber under the same conditions without stretch stimulation. Keloid cells were then harvested and counted, and 2×10^4 cells were resuspended in 150 μL of medium containing 1% FBS and reintroduced into the upper compartment of the insert. The lower compartment was filled with 500 μL of medium containing 2% FBS as a chemoattractant. The cells were allowed to migrate for 24 hours at 37° C. The cells were fixed in 4% PFA, permeabilized with 0.1% Triton X-100 in PBS for 10 min, and stained with hematoxylin for 10 min at room temperature. After washing with PBS, non-migrated cells were removed from the upper insert by a cotton swab. The polycarbonate membrane was removed from the insert and mounted on a slide. Fields of migrated cells were captured with an inverted microscope (Leica Microsystems GmbH, Wetzlar, Germany). The migration area was evaluated as a purple area extracted from each image, and analyzed with Image J software as a percentage of the migrated area.
# YAP and MRTF = test: Nuclear translocation of YAP and MRTF during stretching (subcellular fractionation, Western blotting); assay type: cell-based, human; conditions: stretched keloid fibroblasts, FIG. 6
# Description: A is a Western blotting analysis of nuclear translocation of YAP and MRTF in the subcellular fraction of keloid fibroblasts subjected to or not subjected to mechanical stretching with or without Y-27632. B is a quantitative analysis of cytoplasmic and nuclear expression levels of MRTF and YAP. The results were expressed as the mean with SD (n=5). Student's t test was used for all analyses. *P<0.05. Nuclear/cytoplasmic extracts were separated separately using NE-Per Nuclear and Cytoplamic Extractons Reagents (#78833, Thermo Scientific, MA, USA) according to the manufacturer's instructions. Subcellular fractionation lysis was analyzed by Western blotting analysis for YAP (#5157, Cell Signaling, MA, USA), MRTF (sc-47724, Santa Cruz, CA, USA) including GADPH ([…], Santa Cruz, CA, USA) and Lamin B (#12586, Cell Signaling, MA, USA) as internal markers for cytoplasmic and nuclear fractions, respectively. The quantification was performed with Image J software.
smiles,measurement,setting,value
C[C@@H](N)[C@H]1CC[C@H](C(=O)Nc2ccncc2)CC1 [Y-27632],"expression of phosphorylated proteins (p-cofilin, p-MLC)",[1],greatest decrease
same,weight of keloid nodules compared to the control group,[2],significantly reduced
same,mean volume of keloid nodules at the time of keloid nodule excision,[2]; DMSO control 21.27±13.98,17.21±13.49 MM^3
same,average weight of keloid nodules,"[2]; control 7.61±3.16, FIG. 7A",4.56±3.50 Mg
same,inflammatory cells in the keloid region,"[3]; H&E staining, compared to the control group",reduced inflammatory cells
same,deposition of collagen bundles (MT staining),[3]; control group compared to the Y-27632-treated group,higher deposition of collagen bundles in the control group
same,"protein expression of VEGF, SMA, vimentin, collagen type I, and collagen type III","[3]; immunohistochemistry of nodule tissue, compared to the DMSO-treated group, FIG. 7B",significantly reduced
same,disruption of F-actin cytoskeletal structure,"F-actin; at 25 and 50 μM, 24 h, keloid fibroblasts",dramatic disruption
same,cellular F-actin network,"F-actin; fibroblasts with or without mechanical stretching exposed to Y-27632, FIG. 4B",significantly disrupted
same,F-actin fiber formation in keloid fibroblasts,"F-actin; increasing doses, 24 h, FIG. 3B",tightly regulated by Y-27632 treatment in a dose-dependent manner
same,decrease in the activity of ROCK1,"ROCK1; keloid fibroblasts treated with Y-27632 (10 μM, 24 hours) and stretch-stimulated",26%
same,decrease in the activity of ROCK1,"ROCK1; keloid fibroblasts treated with Y-27632 alone (10 μM, 24 hours, static)",10.8%
same,"mRNA levels of fibrotic genes (COL1A1, COL3A1, Fibronectin, α-SMA, CTGF, PCNA)",[4],decrease
same,inhibitory effect on keloid fibroblast proliferation,keloid fibroblasts [5],No inhibitory effect
same,migration of keloid fibroblasts,keloid fibroblasts [6],partially inhibited
same,nuclear import of YAP and MRTF,YAP and MRTF,inhibiting nuclear import
